Experimental data: PMC9821907, “Synthesis and Antiprotozoal Activity of Azabicyclo-Nonane Pyrimidine Hybrids” (Molecules, 2022)
Where two headings read alike, the source gives them in different places.

Tests used:
[1] = tested on: P. falciparum NF54; test: In vitro microplate 3H-hypoxanthine incorporation assay against P. falciparum NF54; type: cell-based; details: Plasmodium falciparum
Procedure: (§1) Compounds were tested for their activities against Plasmodium falciparum NF54 (sensitive to chloroquine) and Trypanosoma brucei rhodesiense STIB900, via serial dilution assays. Furthermore, selected compounds were tested against the K1 strain of Plasmodium falciparum (resistant against chloroquine, sulfadoxine and pyrimethamine). Their cytotoxicity was determined with rat skeletal myoblasts (L-6 cells).
(§2) In vitro activity against erythrocytic stages of P. falciparum was determined using a ^3H-hypoxanthine incorporation assay using the drug sensitive NF54 strain [27] or the chloroquine- and pyrimethamine-resistant K1 strain [28]. Compounds were dissolved in DMSO at 10 mg/mL and further diluted in medium before being added to parasite cultures incubated in RPMI 1640 medium without hypoxanthine, supplemented with HEPES (5.94 g/L), NaHCO3 (2.1 g/L), neomycin (100 U/mL), Albumax® (5 g/L) and washed human red cells A+ at 2.5% haematocrit (0.3% parasitaemia). Serial drug dilutions of eleven 3-fold dilution steps covering a range from 100 to 0.002 μg/mL were prepared. The 96-well plates were incubated in a humidified atmosphere at 37 °C; 4% CO2, 3% O2, 93% N2. After 48 h, 0.05 mL of ^3H-hypoxanthine (= 0.5 μCi) was added to each well of the plate. The plates were incubated for a further 24 h under the same conditions. The plates were then harvested with a Betaplate™ cell harvester (Wallac, Zurich, Switzerland), and the red blood cells transferred onto a glass fibre filter then washed with distilled water. The dried filters were inserted into a plastic foil with 10 mL of scintillation fluid, and counted in a Betaplate™ liquid scintillation counter (Wallac, Zurich, Switzerland). IC50 values were calculated from sigmoidal inhibition curves by linear regression using Microsoft Excel. Chloroquine (Sigma C6628) was used as control.

[2] = in vitro; details: rat
Procedure: as §1
Assays were performed in 96-well microtiter plates, each well containing 0.1 mL of RPMI 1640 medium supplemented with 1% L-glutamine (200 mM) and 10% fetal bovine serum, and 4000 L-6 cells (a primary cell line derived from rat skeletal myoblasts, ATCC CRL-1458™). Serial drug dilutions of eleven 3-fold dilution steps covering a range from 100 to 0.002 μg/mL were prepared. After 70 h of incubation the plates were inspected under an inverted microscope to assure growth of the controls and sterile conditions. Then, 0.01 mL resazurin solution (resazurin, 12.5 mg in 100 mL double-distilled water) was added to each well and the plates incubated for another 2 h. The plates were read with a Spectramax Gemini XS microplate fluorometer (Molecular Devices Cooperation, Sunnyvale, CA, USA) using an excitation wave length of 536 nm and an emission wave length of 588 nm. The IC50 values were calculated by linear regression from the sigmoidal dose inhibition curves using SoftmaxPro software (Molecular Devices Cooperation, Sunnyvale, CA, USA). Podophyllotoxin (Sigma P4405) was used as control.

[3] = tested on: T. brucei rhodesiense STIB900; test: In vitro microplate resazurin assay against T. brucei rhodesiense; type: cell-based; details: Trypanosoma brucei, read-out: T. brucei rhodesiense STIB900 IC50
Procedure: as §1
Minimum essential medium (50 µL) supplemented with 25 mM HEPES, 1g/L additional glucose, 1% MEM non-essential amino acids (100×), 0.2 mM 2-mercaptoethanol, 1mM Na-pyruvate and 15% heat-inactivated horse serum was added to each well of a 96-well microtiter plate. Serial drug dilutions of eleven 3-fold dilution steps covering a range from 100 to 0.002 μg/mL were prepared. Then 4 × 10^3 bloodstream forms of T. b. rhodesiense STIB 900 in 50 µL was added to each well and the plate incubated at 37 °C under a 5 % CO2 atmosphere for 70 h. Next, 10 µL resazurin solution (resazurin, 12.5 mg in 100 mL double-distilled water) was added to each well and incubation continued for a further 2–4 h. Then the plates were read with a Spectramax Gemini XS microplate fluorometer (Molecular Devices Cooperation, Sunnyvale, CA, USA) using an excitation wave length of 536 nm and an emission wave length of 588 nm. Data were analyzed with the graphic programme Softmax Pro (Molecular Devices Cooperation, Sunnyvale, CA, USA), which calculated IC50 values by linear regression and 4-parameter logistic regression from the sigmoidal dose inhibition curves. Melarsoprol (Arsobal Sanofi-Aventis, received from WHO) was used as control.

[4] = tested on: P. falciparum K1; test: In vitro microplate 3H-hypoxanthine incorporation assay against P. falciparum K1; type: cell-based, Plasmodium falciparum; details: Plasmodium falciparum
Procedure: as §1, §2

[5] = NF54 strain, sensitive to chloroquine and pyrimethamine, average of four determinations, read-out: P. falciparum NF54 IC50
[6] = bloodstream forms, average of four determinations
[7] = K1, K1 strain, resistant to chloroquine, sulfadoxine and pyrimethamine, average of four determinations, read-out: P. falciparum K1 IC50

## Cc1cc(N2CC3C(c4ccccc4)CC(N4CCCCC4)(CC3c3ccccc3)C2)nc(Cl)n1 (racemic) [Compound 15, rac-(7R,8R)-3-(2-chloro-6-methylpyrimidin-4-yl)-6,9-diphenyl-1-(piperidin-1-yl)-3-azabicyclo[3.2.2]nonane]
[1]; [5]
  IC50: 1.49 ± 0.784 µM
[2]
  IC50 at 72 h: 27.2 ± 11.8 µM
[3]; [6]
  IC50: 9.51 ± 0.914 µM
[4]; [7]
  IC50: 2.08 ± 0.43 µM

## Cc1cc(N2CC3C(c4ccccc4)CC(N4CCCC4)(CC3c3ccccc3)C2)nc(Cl)n1 (racemic) [Compound 16, rac-(7R,8R)-3-(2-chloro-6-methylpyrimidin-4-yl)-6,9-diphenyl-1-(pyrrolidin-1-yl)-3-azabicyclo[3.2.2]nonane]
[1]; [5]
  IC50: 0.281 ± 0.006 µM
[2]
  IC50 at 72 h: 12.5 ± 1.44 µM
[3]; [6]
  IC50: 4.31 ± 0.021 µM
[4]; [7]
  IC50: 0.292 ± 0.021 µM

## Cc1cc(N2CCC3(N4CCCCC4)C[C@H](c4ccccc4)C2[C@@H](c2ccccc2)C3)nc(N2CCCC2)n1 (racemic) [Compound 17, rac-(7R,8R)-2-[6-methyl-2-(pyrrolidin-1-yl)pyrimidin-4-yl]-7,8-diphenyl-5-(piperidin-1-yl)-2-azabicyclo[3.2.2]nonane]
[1]; [5]
  IC50: 0.617 ± 0.008 µM
[2]
  IC50 at 72 h: 23.2 ± 9.93 µM
[3]; [6]
  IC50: 0.575 ± 0.033 µM

## Cc1cc(N2CCC3(N4CCCC4)C[C@H](c4ccccc4)C2[C@@H](c2ccccc2)C3)nc(N2CCCC2)n1 (racemic) [Compound 18, rac-(7R,8R)-2-[6-methyl-2-(pyrrolidin-1-yl)pyrimidin-4-yl]-7,8-diphenyl-5-(pyrrolidin-1-yl)-2-azabicyclo[3.2.2]nonane]
[1]; [5]
  IC50: 0.136 ± 0.016 µM
[2]
  IC50 at 72 h: 15.1 ± 0.483 µM
[3]; [6]
  IC50: 0.095 ± 0.032 µM
[4]; [7]
  IC50: 0.059 ± 0.002 µM

## Cc1cc(N2CC3C(c4ccccc4)CC(N4CCCCC4)(CC3c3ccccc3)C2)nc(N2CCCC2)n1 (racemic) [Compound 19, rac-(7R,8R)-3-[6-methyl-2-(pyrrolidin-1-yl)pyrimidin-4-yl]-6,9-diphenyl-1-(piperidin-1-yl)-3-azabicyclo[3.2.2]nonane]
[1]; [5]
  IC50: 5.29 ± 0.134 µM
[2]
  IC50 at 72 h: 58.4 ± 22.9 µM
[3]; [6]
  IC50: 3.16 ± 1.06 µM
[4]; [7]
  IC50: 0.694 ± 0.268 µM

## Cc1cc(N2CCC3(N4CCCCC4)C[C@H](c4ccccc4)C2[C@@H](c2ccccc2)C3)nc(N2CCCCC2)n1 (racemic) [Compound 21, rac-(7R,8R)-2-[6-methyl-2-(piperidin-1-yl)pyrimidin-4-yl]-7,8-diphenyl-5-(piperidin-1-yl)-2-azabicyclo[3.2.2]nonane]
[1]; [5]
  IC50: 4.7 ± 1.19 µM
[2]
  IC50 at 72 h: 104 ± 27 µM
[3]; [6]
  IC50: 8.72 ± 4.2 µM

## Cc1cc(N2CCC3(N4CCCC4)C[C@H](c4ccccc4)C2[C@@H](c2ccccc2)C3)nc(N2CCCCC2)n1 (racemic) [Compound 22, rac-(7R,8R)-2-[6-methyl-2-(piperidin-1-yl)pyrimidin-4-yl]-7,8-diphenyl-5-(pyrrolidin-1-yl)-2-azabicyclo[3.2.2]nonane]
[1]; [5]
  IC50: 0.406 ± 0.015 µM
[2]
  IC50 at 72 h: 6.73 ± 3.08 µM
[3]; [6]
  IC50: 0.107 ± 0.049 µM

## Cc1cc(N2CC3C(c4ccccc4)CC(N4CCCC4)(CC3c3ccccc3)C2)nc(N2CCCCC2)n1 (racemic) [Compound 24, rac-(7R,8R)-3-[6-methyl-2-(piperidin-1-yl)pyrimidin-4-yl]-6,9-diphenyl-1-(pyrrolidin-1-yl)-3-azabicyclo[3.2.2]nonane]
[1]; [5]
  IC50: 3.79 ± 0.163 µM
[2]
  IC50 at 72 h: 61.8 ± 27.9 µM
[3]; [6]
  IC50: 1.45 ± 0.116 µM

## CCN(CC)CCCC(C)Nc1ccnc2cc(Cl)ccc12 (stereo not drawn) [CQ, chloroquine, reference compound]
[1]; NF54, read-out: P. falciparum NF54 IC50
  IC50: 0.0039 µM
[2]
  IC50 at 72 h: 90.9 µM
[4]; K1, read-out: P. falciparum K1 IC50
  IC50: 0.163 µM

## Nc1nc(N)nc(Nc2ccc([As]3SCC(CO)S3)cc2)n1 (stereo not drawn) [MEL, melarsoprol, reference compound]
[2]
  IC50 at 72 h: 7.78 µM
[3]
  IC50: 0.01 µM
